From US20240217990A1 (Gilead Sciences, Inc., priority 2021, published 2024)
pEC50: −log10 of the molar value.

Experiments:
TLR7 = target: T1, TLR7 (Homo sapiens, UniProt Q9NYK1); experiment: TLR7 human PBMC cell-based assay (antagonist, GS-986 stimulated cytokine release); settings: human PBMCs; TLR7 agonist GS-986 400 nM, 6 hours; cytokines (IL-6 and IFNα) in supernatant; read-out: TLR-7 EC50
T1 construct: Human peripheral blood mononuclear cells (PBMCs) consist of lymphocytes, monocytes and dendritic cells that express TLR7, TLR8 and TLR9; endogenous in cells; host or cells: cryopreserved human PBMCs from healthy donors
T1 sequence (Q9NYK1 27-1049): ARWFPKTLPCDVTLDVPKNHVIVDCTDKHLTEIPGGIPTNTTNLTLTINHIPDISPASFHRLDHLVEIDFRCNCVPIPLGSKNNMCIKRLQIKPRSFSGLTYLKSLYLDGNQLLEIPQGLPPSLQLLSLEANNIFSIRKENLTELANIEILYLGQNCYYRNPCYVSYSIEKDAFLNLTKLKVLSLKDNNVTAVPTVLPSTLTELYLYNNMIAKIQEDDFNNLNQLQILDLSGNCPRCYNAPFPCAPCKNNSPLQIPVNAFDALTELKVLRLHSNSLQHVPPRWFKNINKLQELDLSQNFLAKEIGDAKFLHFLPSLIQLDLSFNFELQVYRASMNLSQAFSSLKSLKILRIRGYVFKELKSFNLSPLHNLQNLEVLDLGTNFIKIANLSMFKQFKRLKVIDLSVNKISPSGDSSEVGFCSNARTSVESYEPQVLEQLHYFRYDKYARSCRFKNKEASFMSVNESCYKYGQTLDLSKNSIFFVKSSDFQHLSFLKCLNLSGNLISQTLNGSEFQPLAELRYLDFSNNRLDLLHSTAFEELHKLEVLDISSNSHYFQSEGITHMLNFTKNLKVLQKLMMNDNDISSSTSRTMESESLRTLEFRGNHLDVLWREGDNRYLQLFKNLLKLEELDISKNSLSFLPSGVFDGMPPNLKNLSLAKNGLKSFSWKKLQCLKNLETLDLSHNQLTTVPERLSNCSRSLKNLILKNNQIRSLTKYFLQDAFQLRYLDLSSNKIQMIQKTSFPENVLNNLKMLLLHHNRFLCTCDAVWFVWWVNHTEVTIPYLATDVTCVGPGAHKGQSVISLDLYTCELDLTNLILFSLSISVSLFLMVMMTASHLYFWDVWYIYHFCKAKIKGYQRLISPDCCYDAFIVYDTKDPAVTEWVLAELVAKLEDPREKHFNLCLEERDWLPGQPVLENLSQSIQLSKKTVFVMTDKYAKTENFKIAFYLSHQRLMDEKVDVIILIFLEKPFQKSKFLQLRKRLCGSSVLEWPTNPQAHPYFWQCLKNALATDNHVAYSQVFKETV
Procedure, shortened: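 Cryopreserved healthy-donor PBMCs (100,000/well, RPMI-1640 + 10% FBS) pre-incubated 1 h at 37 °C with antagonist (10-point dose response, quadruplicate), then stimulated 6 h with GS-986 at 400 nM final. Supernatant IL-6 and IFNα measured by electrochemiluminescence immunoassay; EC50 from sigmoidal fit.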

TLR8 = target: T2, TLR8 (Homo sapiens, UniProt Q9NR97); experiment: TLR8 human PBMC cell-based assay (antagonist, Compound A stimulated cytokine release); settings: human PBMCs; TLR8 agonist Compound A 800 nM, 6 hours; cytokines (TNFa and IL 12p40) in supernatant; read-out: TLR-8 EC50
T2 construct: Human peripheral blood mononuclear cells (PBMCs) consist of lymphocytes, monocytes and dendritic cells that express TLR7, TLR8 and TLR9; endogenous in cells; host or cells: cryopreserved human PBMCs from healthy donors
T2 sequence (Q9NR97 27-1041): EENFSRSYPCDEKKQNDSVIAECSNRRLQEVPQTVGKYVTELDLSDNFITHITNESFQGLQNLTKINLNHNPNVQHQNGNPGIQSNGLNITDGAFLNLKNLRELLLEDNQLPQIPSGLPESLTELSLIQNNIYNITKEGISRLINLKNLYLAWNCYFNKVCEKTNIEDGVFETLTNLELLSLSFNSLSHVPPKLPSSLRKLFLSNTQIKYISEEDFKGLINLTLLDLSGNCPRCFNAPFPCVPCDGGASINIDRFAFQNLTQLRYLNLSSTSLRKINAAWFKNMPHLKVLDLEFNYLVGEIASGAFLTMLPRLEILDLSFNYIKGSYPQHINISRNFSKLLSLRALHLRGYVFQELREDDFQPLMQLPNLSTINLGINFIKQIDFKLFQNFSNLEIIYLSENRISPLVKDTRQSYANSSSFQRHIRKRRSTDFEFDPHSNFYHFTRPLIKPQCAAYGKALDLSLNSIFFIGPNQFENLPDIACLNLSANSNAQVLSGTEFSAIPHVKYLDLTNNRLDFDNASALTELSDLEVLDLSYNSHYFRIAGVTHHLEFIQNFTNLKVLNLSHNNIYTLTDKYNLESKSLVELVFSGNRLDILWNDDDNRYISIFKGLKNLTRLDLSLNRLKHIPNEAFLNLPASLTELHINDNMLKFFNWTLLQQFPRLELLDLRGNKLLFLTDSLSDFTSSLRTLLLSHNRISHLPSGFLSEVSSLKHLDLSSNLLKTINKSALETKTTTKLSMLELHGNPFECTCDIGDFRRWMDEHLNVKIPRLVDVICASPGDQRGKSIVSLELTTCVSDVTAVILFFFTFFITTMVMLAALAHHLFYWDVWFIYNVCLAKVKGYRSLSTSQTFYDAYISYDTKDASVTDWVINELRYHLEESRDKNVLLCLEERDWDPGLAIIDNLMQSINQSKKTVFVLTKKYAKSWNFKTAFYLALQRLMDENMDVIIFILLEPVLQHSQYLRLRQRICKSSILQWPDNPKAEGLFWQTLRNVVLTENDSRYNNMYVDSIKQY
Procedure, shortened: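 Cryopreserved donor PBMCs (100,000/well, RPMI + 10% FBS) were preincubated 1 h with antagonist (10-point dose response, quadruplicate), then stimulated with Compound A (800 nM final) for 6 h at 37 °C. TNFa and IL-12p40 in supernatants were measured by electrochemiluminescence; sigmoidal fits gave EC50.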

pEC50 (TLR7) | pEC50 (TLR8) | Compound
9.22 | 8.80 | Cc1cc(-c2[nH]c3cc(-c4cnn(C5CCNC5)c4)sc3c2C(C)C)cn2ncnc12 (stereo not shown) [Example 226]
9.70 | 8.03 | Cc1cc(-c2[nH]c3cc(C4=NCC5(CCNCC5)O4)sc3c2C(C)C)cn2ncnc12 [Example 70]
8.54 | 8.19 | Cc1cc(-c2[nH]c3cc(C(=O)N4CCCC(CN(C)C)C4)sc3c2C(C)C)cn2ncnc12 (stereo not shown) [Example 112]
6.82 | 8.62 | Cc1cc(-c2[nH]c3cc(C(=O)N4CC(N(C)C)C4)sc3c2C(C)C)cn2ncnc12 [Example 147]
10.00 | 8.42 | Cc1cc(-c2[nH]c3cc(-c4nc(C5CCNCC5)no4)sc3c2C(C)C)cn2ncnc12 [Example 46, 5-(6-isopropyl-5-(8-methyl-[1,2,4]triazolo[1,5-a]pyridin-6-yl)-4H-thieno[3,2-b]pyrrol-2-yl)-3-(piperidin-4-yl)-1,2,4-oxadiazole]
9.40 | 8.00 | CCN(C(=O)c1cc2[nH]c(-c3cc(C)c4ncnn4c3)c(C(C)C)c2s1)C1CCNCC1 [Example 135]
7.95 | 7.67 | Cc1cc(-c2[nH]c3cc(C(=O)N4CCC[C@H]4CN(C)C)sc3c2C(C)C)cn2ncnc12 [Example 103]
10.00 | 9.10 | Cc1cc(-c2[nH]c3cc(C(=O)N4CCC[C@H]5NCCC[C@H]54)sc3c2C(C)C)cn2ncnc12 [Example 110]
9.40 | 8.07 | Cc1cc(-c2[nH]c3cc(C(=O)N(C)[C@H]4CCNC[C@@H]4F)sc3c2C(C)C)cn2ncnc12 [Example 78]
9.40 | 8.21 | Cc1cc(-c2[nH]c3cc(C(=O)C4CCNCC4)sc3c2C(C)C)cn2ncnc12 [Example 277, (6-isopropyl-5-(8-methyl-[1,2,4]triazolo[1,5-a]pyridin-6-yl)-4H-thieno[3,2-b]pyrrol-2-yl)(piperidin-4-yl)methanone]
8.20 | 6.88 | CC(C)c1c(-c2ccc3nccn3c2)[nH]c2cc(C(=O)N3CCNCC3)sc12 [Example 67]
9.70 | 8.55 | Cc1cc(-c2[nH]c3cc(C4CCN(S(=O)(=O)C5CCNCC5)CC4)sc3c2C(C)C)cn2ncnc12 [Example 184]
7.11 | 7.27 | Cc1cc(-c2[nH]c3cc(C(=O)N4C5CNCC4C5)sc3c2C(C)C)cc(C)n1 [Example 19]
9.12 | 8.19 | Cc1cc(-c2[nH]c3cc(C4CC5CCC4CN5CC(N)=O)sc3c2C(C)C)cn2ncnc12 (stereo not shown) [Example 288]
8.89 | 9.30 | Cc1cc(-c2[nH]c3cc(C(=O)N4C[C@@H](C)NC[C@@H]4C)sc3c2C(C)C)cn2ncnc12 [Example 123]
6.20 | 6.43 | Cc1cc(-c2[nH]c3cc(C(=O)N4CCNC(C#N)C4)sc3c2C(C)C)cc(C)n1 (stereo not shown) [Example 9]
9.10 | 9.70 | Cc1cc(-c2[nH]c3cc(-c4cnc5c(c4)CNCC5)sc3c2C(C)C)cn2ncnc12 [Example 213]
8.82 | 7.62 | Cc1cc(-c2[nH]c3cc(C4CCN(C(=O)C5CNC5)CC4)sc3c2C(C)C)cn2ncnc12 [Example 202]

pEC50 (TLR7) | pEC50 (TLR8) | Compound
7.30 | 7.49 | Cc1cc(-c2[nH]c3cc(C(=O)N4C5CCC4CNC5)sc3c2C(C)C)cc(C)n1 [Example 17]
7.89 | 7.71 | Cc1cc(-c2[nH]c3cc(C(=O)N4CCC5(CCNCC5)C4)sc3c2C(C)C)cn2ncnc12 [Example 120]
8.52 | 7.42 | Cc1cc(-c2[nH]c3cc(C(=O)N(C)C4CNC4)sc3c2C(C)C)cn2ncnc12 [Example 115]
< 6.00 | 6.18 | Cc1cc(-c2[nH]c3cc(C(=O)N[C@@H]4CCNC4)sc3c2C(C)C)cc(C)n1 [Example 5]
8.43 | 8.15 | Cc1cc(-c2[nH]c3cc(-c4nc(N5CCNCC5)no4)sc3c2C(C)C)cc(C)n1 [Example 54, 5-[5-(2,6-dimethyl-4-pyridyl)-6-isopropyl-4H-thieno[3,2-b]pyrrol-2-yl]-3-piperazin-1-yl-1,2,4-oxadiazole]
8.17 | 7.31 | Cc1cc(-c2[nH]c3cc(-c4nc5ccc(N6CCNCC6)cc5[nH]4)sc3c2C(C)C)cn2ncnc12 [Example 237]
7.79 | 7.85 | Cc1cc(-c2[nH]c3cc(C(=O)N4CCNC[C@H]4c4ccccc4)sc3c2C(C)C)cn2ncnc12 [Example 116]
8.51 | 9.15 | Cc1c(-c2[nH]c3cc(-c4cnc5c(c4)CNCC5)sc3c2C(C)C)cn2ncnc2c1C [Example 222]
7.94 | 7.77 | Cc1cc(-c2[nH]c3cc(C(=O)N(C)CC4CCN(CC(N)=O)CC4)sc3c2C(C)C)cn2ncnc12 [Example 174]
9.15 | 7.94 | Cc1cc(-c2[nH]c3cc(C(=O)N(C)C4CCN(C(=O)CN(C)C)CC4)sc3c2C(C)C)cn2ncnc12 [Example 180]
8.80 | 8.72 | Cc1c(-c2[nH]c3cc(-c4cn(C5CCNCC5)nn4)sc3c2C(C)C)cn2ncnc2c1C [Example 230]
8.46 | 8.47 | Cc1cc(-c2[nH]c3cc(C(=O)N4CCNCC4)sc3c2C(C)C)cn2ncnc12 [Example 38, [6-isopropyl-5-(8-methyl-[1,2,4]triazolo[1,5-a]pyridin-6-yl)-4H-thieno[3,2-b]pyrrol-2-yl]-piperazin-1-yl-methanone]
9.40 | 8.15 | Cc1cc(-c2[nH]c3cc(C4CCC5(CC4)CNC5)sc3c2C(C)C)cn2ncnc12 [Example 160]
8.27 | 8.96 | Cc1cc(-c2[nH]c3cc(C(=O)N4CC[C@@H](N(C)C)C4)sc3c2C(C)C)cn2ncnc12 [Example 144]
9.37 | 7.75 | Cc1cc(-c2[nH]c3cc(C4CCC5(CC4)CCN(CC(N)=O)CC5)sc3c2C(C)C)cn2ncnc12 [Example 290]
8.18 | 7.60 | Cc1c(-c2[nH]c3cc(-c4nc5ccc(N6CCNCC6)cc5[nH]4)sc3c2C(C)C)cn2ncnc2c1C [Example 239]
8.80 | 7.85 | Cc1cc(-c2[nH]c3cc(C(=O)N(C)[C@H]4[C@@H]5CNC[C@@H]54)sc3c2C(C)C)cn2ncnc12 [Example 75]
